# Tests used:
# A2780_CR5 [1] = assay: Mouse xenograft: tumor volume and survival; type: in vivo; conditions: CDDP-treated mice
# Description: All animal studies adhered to ethical regulations and protocols. To assess tumorigenicity of cells, cultured A2780_CR5 cells were washed with PBS trypsinized and counted with trypan blue, re-suspended in 1:1 PBS/matrigel (BD Bioscience) and 2×10^6 cells were injected subcutaneously into the left flank of 3- to 4-week-old female nude athymic mice (BALB/c-nu/nu; Harlan, Indianapolis, Ind.). Engrafted mice (n=6 per group) were inspected three times per week for tumor appearance by visual observation and palpation. Once tumors were ˜200 mm^3, mice were treated with either CDDP (2 mg kg−1) or PNA (1 mg kg−1) or both CDDP and PNA twice per week for two weeks. Blood samples were collected by puncturing the left lateral saphenous vein with a needle and collected using a capillary tube. Tumor length (l) and width (w) were measured biweekly using digital calipers and tumor volume (v) was calculated as v=½×1×w2. No randomization was used and no animals were excluded from the final data. […]
# IL-6, MMP-9 and ALDH1A1 = assay: Mouse xenograft: blood IL-6 (ELISA) and tumor expression of HOTAIR targets; type: in vivo, mice; conditions: CDDP alone; after the second bi-weekly treatment
# [2] = Mouse xenograft: body weight, spleen and liver weight, histology; type: in vivo
# Description: In another exemplary method, to investigate anti-tumor properties of pHLIP-PNA3 in vivo, BALB/C mice were subcutaneously injected with CDDP-resistant A2780_CR5 (2×10^6 cells). Once tumors reached ˜200 mm^3, mice were injected intravenously (two times per week for 2 weeks) with pHLIP-PNA3 (1 mg/kg), pHLIP-control PNA (1 mg/kg), and/or CDDP (2 mg/kg i.p.) at indicated times (FIG. 14A). Tumor volume was reduced (p=0.02) in mice co-administered pHLIP-PNA3+CDDP compared to pHLIP-control PNA+CDDP (FIG. 13A). Tumor volume in mice treated with either pHLIP-PNA alone was similar to vehicle-treated mice (FIG. 14A). Importantly, survival of mice treated with pHLIP-PNA3 vs. mock was increased 1.6-fold (39 vs. 25 days; FIG. 13B), and body weight was similar among groups (FIG. 14B), showing that PNAs are non-toxic in vivo. […]
# All animal studies adhered to ethical regulations and protocols. To assess tumorigenicity of cells, cultured A2780_CR5 cells were washed with PBS trypsinized and counted with trypan blue, re-suspended in 1:1 PBS/matrigel (BD Bioscience) and 2×10^6 cells were injected subcutaneously into the left flank of 3- to 4-week-old female nude athymic mice (BALB/c-nu/nu; Harlan, Indianapolis, Ind.). […] Tumor length (l) and width (w) were measured biweekly using digital calipers and tumor volume (v) was calculated as v=½×1×w2. […]
# A2780_CR5 [3] = assay: Survival assay after inhibiting HOTAIR and/or EZH2; type: cell-based; conditions: dsiRNA targeting HOTAIR combined with GSK126; platinum-resistant cells
# Description: In one exemplary method, the effect of inhibiting both HOTAIR and EZH2 on cancer cell survival was investigated. A highly platinum-resistant ovarian cancer cell line (A2780_CR5) was treated with dsiRNA targeting HOTAIR and/or a pharmacological inhibitor of EZH2 (GSK126), followed by survival assays. As an additive (P<0.05) effect of inhibiting HOTAIR-EZH2 on drug sensitivity and survival was observed (versus inhibiting either factor alone; FIG. 2A), it was next of interest to target the HOTAIR-EZH2 interaction by targeting the 89-mer minimum interacting region of HOTAIR, which has been shown. mFold (Zuker, M., Mfold web server for nucleic acid folding and hybridization prediction. Nucleic acids research, 2003. 31(13):3406-3415, incorporated herein by reference in its entirety) was used to validate the predicted secondary structure of this site, observing a highly predicted, single-stranded region in all 19 predicted structures, which complemented previous such structures (FIG. 3A).
# HOTAIR expression = assay: Cytokine/chemokine screen, HOTAIR levels; type: cell-based; conditions: A2780 p cells, 10 ng/mL
# Description: FIG. 11A is a line graph showing changes in HOTAIR target gene expression in A2780 p cells treated with IGF, TGF-β, EGF, IL-1α, or TNF-α (10 ng/mL). Asterisks indicate P<0.05 (*) or P<0.01 (**).
# As a positive association between HOTAIR and the master transcription factor NF-κB has been reported. […] In an exemplary method, a cytokine/chemokine screen was performed, followed by the measurement of HOTAIR levels. Of the cytokines examined, HOTAIR expression was increased (P<0.05) by TNF-α (>15-fold) and TGF-β (5-fold) compared to control (FIG. 11A). To further confirm HOTAIR induction of NF-κB, a luciferase reporter construct containing the E-selectin promoter was used (861 base pairs containing 3 canonical NF-κB-p65-binding sites as a positive control; FIG. 3B) (Ozes, O. N., et al., NF-κB activation by tumour necrosis factor requires the Akt serine-threonine kinase. Nature, 1999. 401(6748):82-85, incorporated herein by reference in its entirety) and a 1.4-fold increase (p<0.05) in luciferase activity was observed by ectopic overexpression of HOTAIR compared to vector control (FIG. 11B), which was decreased (P<0.05) by PNA3 (FIG. 11B). PNA3 treatment of breast and ovarian cancer cells decreased (P<0.05) IL-6 secretion into the media (FIG. 11C). […]
# A2780_CR5 [4] = assay: Cell invasion assay (matrigel); type: cell-based; conditions: FIGS. 5D-5E (A2780_CR5 and SKBR-3)
# Description: In another exemplary method, ovarian cancer cells and breast cancer cells were treated with PNA3 or control PNA. Decreased (P<0.05) invasion of A2780_CR5 (2-fold, FIG. 5D), Kuramochi (0.6-fold, FIG. 9A) and SKBR-3 (2-fold, FIG. 5E) was observed, and the effect of PNA3 on cell invasion was essentially similar to knocking-down HOTAIR expression using siRNA (FIGS. 5D-5E). PNA3 or control PNA had no effect on A2780p and MDA-MB-231 cell invasion (FIGS. 9B-9C).
# Cells were grown in 6 cm culture plates until 70% confluence and treated with either PNA3 or control PNA (1 μM final) for 24 hr. Next day, the plates were trypsinized, serially diluted and 50,000 cells were seeded inside a matrigel invasion chamber insert (Corning, Cat #354480) in serum-free media supplemented with 0.1% BSA. Media supplemented with 20% FBS was added to the bottom of the well and 48 hrs later, cells were fixed and dyed using Wright-Giemsa method (Hema 3 Stat pack, Cat #23-122-929) and invasion was counted under a light microscope at 20× magnification. Relative cell invasion was measured by dividing the control number of invaded cells by the PNA-treated samples.
molecule,measurement,setting,value
"[NH2][Pt]([NH2])([Cl])[Cl] [CDDP, cisplatin]",H&E slides of tumors,A2780_CR5 [1],fewer cells
same,blood IL-6 levels compared to controls,"IL-6, MMP-9 and ALDH1A1",increased
same,spleen size compared to mock treated,[2]; CDDP treatment,increased
same,liver size,[2]; similar trend as spleen,none were statistically significant
CC[C@H](C)n1cc(C)c2c(C(=O)NCc3c(C)cc(C)[nH]c3=O)cc(-c3ccc(N4CCNCC4)nc3)cc21 [GSK126],effect on drug sensitivity and survival of inhibiting both HOTAIR and EZH2 versus either alone,A2780_CR5 [3],additive
TGF-β,HOTAIR expression increase compared to control,HOTAIR expression,5 fold
TNF-α,HOTAIR expression increase compared to control,HOTAIR expression,> 15 fold
"dsiRNA targeting HOTAIR: dsiRNA targeting human HOTAIR, sense SEQ ID NO: 22, antisense SEQ ID NO: 23 (sense UUCUAAAUCCGUUCCAUUCCACUGCGA; antisense GCAGUGGAAUGGAACGGAUUUAGAA; antisense strand carries a 5'-phosphate, other chemistry not given here, further chemistry not given here)","cell invasion, in words",A2780_CR5 [4],decrease
same,effect on drug sensitivity and survival of inhibiting both HOTAIR and EZH2 versus either alone,A2780_CR5 [3],additive

# Reference: patent publication US10801024B2, “Inhibition of lncRNA HOTAIR and related materials and methods” (Indiana University Research and Technology Corporation, priority 2015, dated 2020)
